Source: the supplement of paper PMC12592484

What was measured:
Test in all cases: drug sensitivity score (DSS2, normalised partial AUC of dose-response, 72 h CellTiter-Glo viability) (DSS (dimensionless)); higher = more sensitive (stronger growth inhibition / cytotoxicity); extreme values may be limits of the assay
LNCAP = system: LNCAP
Outline: (§1)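 Viability of low-passage primary prostate cancer-associated fibroblasts, PF179T, WPMY-1, LNCaP and 22Rv1 cells was read by CellTiter-Glo 2.0 luminescence 72 h after seeding onto compounds pre-dispensed in 384-well plates at five doses over a 10,000-fold range. Readings were scaled between vehicle and positive-control wells. Sensitivity is reported as a drug sensitivity score from BREEZE, namely a partial area under the fitted logistic curve divided by the log of its upper asymptote, where higher means more sensitive.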

PF179T = system: PF179T
Outline: as §1

CAF#7 = system: CAF#7 (primary prostate cancer-associated fibroblasts of myCAF-like type)
Outline: as §1

CAF#6 = system: CAF#6 (primary prostate cancer-associated fibroblasts of iCAF-like type)
Outline: as §1

CAF#4 = system: CAF#4 (primary prostate cancer-associated fibroblasts of iCAF-like type)
Outline: as §1

22Rv1 = system: 22Rv1
Outline: as §1

CAF#1 = system: CAF#1 (primary prostate cancer-associated fibroblasts of myCAF-like type)
Outline: as §1

CAF#5 = system: CAF#5 (primary prostate cancer-associated fibroblasts of myCAF-like type)
Outline: as §1

CAF#3 = system: CAF#3 (primary prostate cancer-associated fibroblasts of myCAF-like type)
Outline: as §1

CAF#2 = system: CAF#2 (primary prostate cancer-associated fibroblasts of iCAF-like type)
Outline: as §1

WPMY-1 = system: WPMY-1
Outline: as §1

Structure (SMILES) | drug sensitivity score (LNCAP) | drug sensitivity score (PF179T) | drug sensitivity score (CAF#7) | drug sensitivity score (CAF#6) | drug sensitivity score (CAF#4) | drug sensitivity score (22Rv1) | drug sensitivity score (CAF#1) | drug sensitivity score (CAF#5) | drug sensitivity score (CAF#3) | drug sensitivity score (CAF#2) | drug sensitivity score (WPMY-1)
O=C(c1ccc(OCCN2CCCCC2)cc1)c1c(-c2ccc(O)cc2)sc2cc(O)ccc12 [Raloxifene] (tested concentration range 1-10000 nM) | 2.9 | 0.8 | 0.5 | 0.4 | 0.5 | 2.9 | 0 | 0.2 | 2.4 | 0.7 | 5.8
Cc1nc(=O)c2cc(CN(C)c3ccc(C(=O)N[C@@H](CCC(=O)O)C(=O)O)s3)ccc2[nH]1 [Raltitrexed] (tested concentration range 0.1-1000 nM) | 11.1 | 0.3 | 0 | 0.2 | 0.8 | 0 | 3.3 | 2.8 | 0 | 4.4 | 14
CNC(=O)c1cc(Oc2ccc(NC(=O)Nc3ccc(Cl)c(C(F)(F)F)c3)c(F)c2)ccn1 [Regorafenib] (tested concentration range 1-10000 nM) | 7.2 | 1.9 | 2.7 | 1 | 2.4 | 6 | 2.8 | 3.2 | 3.7 | 3.4 | 3.8
CCOC(=O)C1=CCCC[C@H]1S(=O)(=O)Nc1ccc(F)cc1Cl [Resatorvid] (tested concentration range 1-10000 nM) | 0.4 | 0 | 0.3 | 3.6 | 0 | 0 | 0 | 0 | 5.7 | 0 | 0
CCOCc1nc2c(N)nc3ccccc3c2n1CC(C)(C)O [Resiquimod] (tested concentration range 1-10000 nM) | 0 | 0 | 0 | 0 | 0 | 0 | 0 | 0 | 0 | 0.4 | 0
CN(C)Cc1ccc(S(=O)(=O)n2ccc(/C=C/C(=O)NO)c2)cc1 [Resminostat] (tested concentration range 1-10000 nM) | 12.2 | 6 | 4.7 | 5.9 | 6 | 12.3 | 4.4 | 4.6 | 6 | 5.9 | 13.6
CN(C)C(=O)c1cc2cnc(Nc3ccc(N4CCNCC4)cn3)nc2n1C1CCCC1 [Ribociclib] (tested concentration range 1-10000 nM) | 7.7 | 3.7 | 3 | 2.4 | 2.7 | 5 | 0 | 2.5 | 2.9 | 4.6 | 0
C=CC(=O)Nc1cccc(Nc2nc(Nc3ccc(N4CCN(C(C)=O)CC4)cc3OC)ncc2C(F)(F)F)c1 [Rociletinib] (tested concentration range 0.5-5000 nM) | 2.6 | 5 | 4 | 2.6 | 6.8 | 6 | 6.6 | 5.2 | 2.1 | 8.3 | 7
C/C=C1\NC(=O)[C@H]2CSSCC/C=C/[C@H](CC(=O)N[C@H](C(C)C)C(=O)N2)OC(=O)[C@H](C(C)C)NC1=O [Romidepsin] (tested concentration range 0.1-1000 nM) | 35.5 | 22.5 | 24.4 | 26.6 | 21.4 | 27.9 | 23.1 | 25 | 23.1 | 23.4 | 30
Cc1nc(C(=O)NCC(=O)O)c(O)c2ccc(Oc3ccccc3)cc12 [Roxadustat] (tested concentration range 1-10000 nM) | 0 | 0 | 0 | 0 | 0 | 0 | 0 | 0.2 | 0 | 0 | 0
CN(C)C[C@@H]1CCn2cc(c3ccccc32)C2=C(C(=O)NC2=O)c2cn(c3ccccc23)CCO1 [Ruboxistaurin] (tested concentration range 1-10000 nM) | 8.2 | 8.4 | 5.9 | 6.8 | 8.4 | 9.6 | 8.4 | 6.8 | 8.9 | 6.6 | 8.4
CNCc1ccc(-c2[nH]c3cc(F)cc4c3c2CCNC4=O)cc1 [Rucaparib] (tested concentration range 1-10000 nM) | 4.8 | 3.7 | 2.9 | 0.5 | 3.8 | 4.6 | 0.8 | 0 | 0 | 2.3 | 1.8
N#CC[C@H](C1CCCC1)n1cc(-c2ncnc3[nH]ccc23)cn1 [Ruxolitinib] (tested concentration range 1-10000 nM) | 1.5 | 0 | 0 | 0 | 0 | 0 | 0 | 1.3 | 0 | 0.8 | 0.6
CC(C)N(CCCNC(=O)Nc1ccc(C(C)(C)C)cc1)C[C@H]1O[C@@H](n2cc(Br)c3c(N)ncnc32)[C@H](O)[C@@H]1O [SGC0946] (tested concentration range 1-10000 nM) | 2.1 | 0 | 1.2 | 0.1 | 0.8 | 1.6 | 0.2 | 0 | 0.5 | 0 | 2.2
COc1ccc(CCc2nc3cc(-c4c(C)noc4C)ccc3n2C[C@H](C)N2CCOCC2)cc1Cl [SGC-CBP30] (tested concentration range 2.5-25000 nM) | 8.5 | 0.1 | 1.2 | 2.2 | 1.3 | 6.2 | 1.6 | 0.8 | 5.4 | 1.5 | 7.4
CN(CC(=O)N(Cc1ccc(C2CCCCC2)cc1)c1ccc(C(=O)O)cc1)S(=O)(=O)c1c(F)c(F)c(F)c(F)c1F [SH-4-54] (tested concentration range 2.5-25000 nM) | 6 | 5.5 | 4.6 | 7.2 | 5.6 | 8.4 | 6.3 | 6 | 5.4 | 6.3 | 6.5
CCc1c2c(nc3ccc(O)cc13)-c1cc3c(c(=O)n1C2)COC(=O)[C@]3(O)CC [SN-38] (tested concentration range 1-10000 nM) | 34.8 | 19.7 | 11.8 | 8.7 | 20.3 | 39.3 | 20.3 | 14.3 | 7.1 | 25.5 | 35
CC[C@@H](C(=O)[C@@H](C)[C@@H](O)[C@H](C)[C@@H]1O[C@@H]([C@@H](CC)C(=O)O)CC[C@@H]1C)[C@H]1O[C@]2(C=C[C@@H](O)[C@]3(CC[C@@](C)([C@H]4CC[C@](O)(CC)[C@H](C)O4)O3)O2)[C@H](C)C[C@@H]1C [Salinomycin] (tested concentration range 5-50000 nM) | 29.1 | 19.1 | 18.5 | 21.2 | 25.2 | 26.4 | 26.8 | 23.6 | 9.4 | 26.5 | 28.8
CC(C)n1nc(-c2ccc3oc(N)nc3c2)c2c(N)ncnc21 [Sapanisertib] (tested concentration range 0.1-1000 nM) | 20 | 18 | 13.2 | 14.6 | 17.8 | 21.2 | 20.2 | 19.1 | 14.3 | 14 | 13.7
CN1CCN(CCOc2cc(OC3CCOCC3)c3c(Nc4c(Cl)ccc5c4OCO5)ncnc3c2)CC1 [Saracatinib] (tested concentration range 1-10000 nM) | 6.4 | 5.5 | 5.8 | 6.6 | 6.7 | 4.3 | 7.7 | 8.2 | 10.1 | 7.7 | 5.4
CC[C@H](CO)Nc1nc(NCc2ccccc2)c2ncn(C(C)C)c2n1 [Seliciclib] (tested concentration range 1-10000 nM) | 4.3 | 0 | 2.3 | 1.1 | 1.4 | 0.2 | 1.7 | 2 | 1.4 | 1.1 | 0.6
O=C(/C=C\n1cnc(-c2cc(C(F)(F)F)cc(C(F)(F)F)c2)n1)NNc1cnccn1 [Selinexor] (tested concentration range 1-10000 nM) | 26.2 | 16.4 | 11.9 | 11.7 | 17.8 | 30.5 | 16.5 | 14.6 | 9.9 | 21.3 | 27.4
Cc1cc(F)c(C(=O)Nc2cccc(-c3nncn3C(C)C)n2)cc1-n1cnc(C2CC2)c1 [Selonsertib] (tested concentration range 0.1-1000 nM) | 1.4 | 0 | 0 | 0 | 0 | 0 | 0 | 0 | 0 | 0 | 0
